Values joined by “and” are separate entries in the source; they are usually repeats but may differ in a detail not shown here. Identical values can stand only once. Like-named read-outs stand apart in the source and are kept apart here.
Assays:
[1] = Freeze-thaw stability in mouse plasma; format: in vitro ADME; conditions: after three freeze-thaw cycles
Protocol: Bioanalytical method validation was performed in mouse plasma and mouse liver. The linear calibration range for metarrestin was 1.0–1000 ng/mL for plasma and 5.0–20,000 ng/g for liver homogenate. The lower limit of quantitation of the assay was 1.0 ng/mL in plasma and 5.0 ng/g in liver homogenate. The accuracy of calibration standards was between within 8% of the nominal values. Intra-assay variance and deviation from nominal values were calculated at low quality-control (LOQ, 1.0 ng/mL plasma and 5.0 ng/g liver), middle quality-control (MQC, 10.0 ng/mL and 500 ng/g), and high quality-control (HQC, 1000 ng/mL and 20,000 ng/g) levels for six replicates, each of the same analytical run (Suppl. Tables 1, 2). The variance of the QC samples (CV%, […]) ranged from 1.0 to 5.1% and the deviation was between 3 and 6% from nominal values. No endogenous interference was found at the retention time for metarrestin and internal standard as verified by testing control blank plasma and liver homogenate. Metarrestin was stable in mouse plasma after three freeze-thaw cycles.

[2] = Pharmacokinetics in tumor-bearing KPC mice after 25 mg/kg single or multiple dose oral gavage; format: in vivo; conditions: for AUC(0-t): po; for Kp: read-out: AUC0–24h ratio (tissue/plasma)
Description: Animals with three or more tumors per organ, pancreatic cysts or cystic tumors, signs of intestinal, pancreatic or gall bladder duct occlusions, or otherwise moribund/showing signs of dilapidation were excluded. Mice were randomized into treatment groups using their tumor volume and location inside pancreas, animal age, gender, and weight by an unbiased covariate randomization.
For pharmacokinetic studies, metarrestin solutions prepared in 30% PEG-400 and 70% (20% w:v HP-β-CD in water) solution were administered to C57BL/6 mice at 3 mg/kg IV via tail vein injection, or 3 and 10 mg/kg orally via gavage. KPC mice were additionally treated with 25 mg/kg PO via gavage. The dosing volume was 3 mL/kg for IV route and 10 mL/kg for PO route. Dosing solutions were prepared on the day of administration. Blood samples were collected at 10, 20 min, 1, 2, 4, 7 and 24 h after 3 mg/kg IV administration. After oral administration of 3 and 10 mg/kg in C57BL6 mice, blood and liver samples were collected at 10 min, 0.5, 1, 2, 3, 5, 7, 9 and 24 h post dosing (n = 3 per time point). In KPC mice, blood, pancreatic tumor, spleen and liver samples were collected at 1, 2, 3, 6, 9, 12 and 24 h after 25 mg/kg PO administration.
For the assessment of multiple dose (MD) pharmacokinetics, KPC mice were treated with daily PO administration of 25 mg/kg metarrestin for 14 days. Plasma (100–300 µL), pancreatic tumors, spleen and liver samples were collected at 0, 3, 6, 9, 12, 15, 24 and 48 h after last dose from three mice at each time point. Daily dosing was carried for 14 days, with the last dose administered at 9:00 a.m. on Day 14. To assess the steady-state concentration of metarrestin in KPC mice, animals were treated with drug-formulated chow for 14 days. To control for daily cycle changes in feeding behavior, 9:00 a.m. on day 0 was designated as the study start time, and 9:00 a.m. on Day 14 was designated as the 0 h time point for sample collection. Blood, pancreatic tumor, spleen and liver tissue were collected at 0, 3, 6, 9, 12, 15, and 24 h from three mice at each time point while the animals were continuously fed with metarrestin-formulated chow on Day 14. Additional controls included mice with a matched drug-free diet, with blood and tissue samples collected at the initial (t = 0) and two intermediate (t = 9 h, t = 24 h) time points.
Blood samples were collected in K2EDTA tubes and plasma was harvested after centrifugation at 3000 rpm for 10 min. Tissue samples were weighed and flash-frozen for PK and PD mRNA expression analyses, embedded into OCT blocks for PNC determination and processed into FFPE blocks for histopathology assessment. All PK samples were stored at − 80 °C until analysis.
An ultra-performance liquid chromatography–tandem mass spectrometry (UPLC–MS/MS) method was developed to determine metarrestin concentrations in plasma and tissue samples. Mass spectrometric analysis was performed on a Waters Xevo TQ-S triple quadrupole instrument using electrospray ionization in positive mode. The separation was performed on an Acquity BEH C18 column (50 × 2.1 mm, 1.7 µ) using a Waters Acquity UPLC system with 0.6 mL/min flow rate and gradient elution. Mobile phase A was 0.1% formic acid in water, and B was 0.1% formic acid in acetonitrile (ACN). The column temperature was maintained at 60 °C. The calibration standards and quality control (QC) samples were prepared in the control blank mouse plasma and tissue homogenate. Tissues were homogenized with 3 or 6 volumes (v/w) of deionized water on the day of analysis. Proteins were precipitated from 10 µL plasma or 5 µL tissue homogenate with 200 µL ACN containing 100 ng/mL Tolbutamide as internal standard in 96-well plates. The mixture was vortexed for 2 min and centrifuged at 4000 rpm for 30 min at 4 °C. An aliquot of 150 µL supernatant was transferred to a 350-µL 96-well plate. 0.2 µL supernatant was injected for the UPLC–MS/MS analysis. Data were analyzed using MassLynx V4.1. […]

[3] = KPC, mouse, pancreatic tumor, tumor, day 14, multiple PO doses 25 mg/kg/day
[4] = KPC, mouse, pancreatic tumor, tumor, single PO dose 25 mg/kg
[5] = KPC, mouse, liver, day 14, multiple PO doses 25 mg/kg/day
[6] = KPC, mouse, liver, single PO dose 25 mg/kg
[7] = KPC, mouse, plasma, day 14, multiple PO doses 25 mg/kg/day
[8] = KPC, mouse, plasma, single PO dose 25 mg/kg
[9] = KPC, mouse, spleen, day 14, multiple PO doses 25 mg/kg/day
[10] = KPC, mouse, spleen, single PO dose 25 mg/kg

N=c1c2c(-c3ccccc3)c(-c3ccccc3)n(Cc3ccccc3)c2ncn1[C@H]1CC[C@H](O)CC1 [metarrestin, Trans-4-(7-benzyl-4-imino-5,6-diphenyl-4,7-dihydro-3H-pyrrolo[2,3-d]pyrimidin-3-yl) cyclohexanol]
stability in mouse plasma [1]: stable
intratumor AUC0–24h ([2]; 25 mg/kg PO gavage MD): 1,150,000 h ng/mL
AUC(0-t) ([2]; KPC, mouse, liver, 25 mg/kg, liver, single PO dose 25 mg/kg, read-out: AUC0–24h): 536 µg·h/mL
AUC(0-t) ([2]; KPC, mouse, liver, 25 mg/kg/day, liver, day 14, multiple PO doses 25 mg/kg/day, read-out: AUC0–24h): 987 µg·h/mL
AUC(0-t) ([2]; KPC, mouse, liver, 25 mg/kg/day, liver, day 14, multiple PO doses 25 mg/kg/day, read-out: AUC0–48h): 1290 µg·h/mL
Kp ([2]; KPC, mouse, pancreatic tumor / plasma, tumor/plasma, day 14, multiple PO doses 25 mg/kg/day): 37
Kp ([2]; KPC, mouse, pancreatic tumor / plasma, tumor/plasma, single PO dose 25 mg/kg): 19
AUC(0-t) ([2]; KPC, mouse, pancreatic tumor, 25 mg/kg, tumor, single PO dose 25 mg/kg, read-out: AUC0–24h): 232 µg·h/mL
AUC(0-t) ([2]; KPC, mouse, pancreatic tumor, 25 mg/kg/day, tumor, day 14, multiple PO doses 25 mg/kg/day, read-out: AUC0–24h): 1150 µg·h/mL
AUC(0-t) ([2]; KPC, mouse, pancreatic tumor, 25 mg/kg/day, tumor, day 14, multiple PO doses 25 mg/kg/day, read-out: AUC0–48h): 1810 µg·h/mL
concentration at 24 h ([2]; KPC, mouse, pancreatic tumor, 24 h after single dose 25 mg/kg PO, read-out: intratumor concentration (mean)): 6200 ng/g and 13 µM
AUC(0-inf) [2, 3]: 2090 µg·h/mL
Cmax [2, 3]: 65000 ng/mL
Tmax [2, 3]: 6 h
half-life [2, 3]: 18 h
Cmax [2, 4]: 14000 ng/mL
Tmax [2, 4]: 6 h
AUC(0-t) ([2]; KPC, mouse, plasma, 25 mg/kg, plasma, single PO dose 25 mg/kg, read-out: AUC0–24h): 12.1 µg·h/mL
AUC(0-t) ([2]; KPC, mouse, plasma, 25 mg/kg/day, plasma, day 14, multiple PO doses 25 mg/kg/day, read-out: AUC0–24h): 31.5 µg·h/mL
AUC(0-t) ([2]; KPC, mouse, plasma, 25 mg/kg/day, plasma, day 14, multiple PO doses 25 mg/kg/day, read-out: AUC0–48h): 38.4 µg·h/mL
AUC(0-t) ([2]; KPC, mouse, spleen, 25 mg/kg, spleen, single PO dose 25 mg/kg, read-out: AUC0–24h): 396 µg·h/mL
AUC(0-t) ([2]; KPC, mouse, spleen, 25 mg/kg/day, spleen, day 14, multiple PO doses 25 mg/kg/day, read-out: AUC0–24h): 959 µg·h/mL
AUC(0-t) ([2]; KPC, mouse, spleen, 25 mg/kg/day, spleen, day 14, multiple PO doses 25 mg/kg/day, read-out: AUC0–48h): 1220 µg·h/mL
Kp ([2]; KPC, mouse, liver/plasma, day 14, multiple PO doses 25 mg/kg/day): 31
Kp ([2]; KPC, mouse, liver/plasma, single PO dose 25 mg/kg): 44
AUC(0-inf) [2, 5]: 1350 µg·h/mL
Cmax [2, 5]: 59500 ng/mL
Tmax [2, 5]: 6 h
half-life [2, 5]: 9.6 h
AUC(0-inf) [2, 6]: 653 µg·h/mL
Cmax [2, 6]: 34200 ng/mL
Tmax [2, 6]: 6 h
half-life [2, 6]: 9 h
AUC(0-inf) [2, 7]: 39.3 µg·h/mL
Cmax [2, 7]: 2000 ng/mL
Tmax [2, 7]: 3 h
half-life [2, 7]: 8.2 h
AUC(0-inf) [2, 8]: 14.4 µg·h/mL
Cmax [2, 8]: 810 ng/mL
Tmax [2, 8]: 6 h
half-life [2, 8]: 8.5 h
Kp ([2]; KPC, mouse, spleen/plasma, day 14, multiple PO doses 25 mg/kg/day): 30
Kp ([2]; KPC, mouse, spleen/plasma, single PO dose 25 mg/kg): 33
AUC(0-inf) [2, 9]: 1250 µg·h/mL
Cmax [2, 9]: 62400 ng/mL
Tmax [2, 9]: 6 h
half-life [2, 9]: 8.2 h
AUC(0-inf) [2, 10]: 495 µg·h/mL
Cmax [2, 10]: 25000 ng/mL
Tmax [2, 10]: 6 h
half-life [2, 10]: 9.7 h
AUC0–24h ([2]; liver, MD 25 mg/kg/day PO): 987,000 ng h/g
AUC0–24h ([2]; liver, SD 25 mg/kg PO): 536,000 ng h/g
AUC0–24h ([2]; tumor, MD 25 mg/kg/day PO): 1,150,000 ng h/g
AUC0–24h ([2]; tumor, SD 25 mg/kg PO): 232,000 ng h/g
